Data reported in patent US12213479B2, “Monoterpenoid/phenylpropanoid-containing compounds and methods of their making and use as herbicides” (KITTRICH CORPORATION, priority 2016, dated 2025).
“Also recorded” adds a separate entry of the source.

What was measured:
[1] = test system: Soybean plants; assay: Soil drench assay, soybean plants; assay type: in vivo; parameters: key: NOE: No Observable Effect; XXX: Dead; -: the lowest phytotoxic effect; --: phytotoxicity that did not result in death; ---: phytotoxicity that did not result in death; ------: the highest; conditions: 3-weeks after treatment, Old Plants, 7%, 40 mL
[2] = test system: Corn plants; assay: Soil drench assay, corn plants; assay type: in vivo; parameters: key to phytotoxicity (qualitative), soil drench: NOE: No Observable Effect; XXX: Dead; -: the lowest phytotoxic effect; --: phytotoxicity that did not result in death; ---: phytotoxicity that did not result in death; ------: the highest; conditions: for phytotoxicity (qualitative), soil drench: Corn, 40 mL
Method: Corn plants were planted under ½″ of potting soil and watered every 2-3 days as necessary. Plants were grown in potting plants (6″ wide×4.5″ deep) with approximately 800 mL of soil for each plant. Seeds germinated approximately 4-7 days after being planted. Plants were grown in a greenhouse under a constant temperature and light environment (25±5° C., 12 hr: 12 hr light: dark cycle). Plants were grown until reaching 1-2 weeks old and 3-4 weeks old; these plants served as the “young” and “old” plants in this study, respectively. Formulations of the various active ingredients were created using the monoterpenoid derivatives, potassium hydroxide, and Triton-X 100™ to aid in the solvation of the active ingredient. […] Formulations were applied to the soil next to the base of the stem of the plant to avoid foliar contact. Observations were performed 2 days and 3 weeks after soil drench to determine the effects of the treatments on the various types and stages of plants.

[3] = test system: corn seeds; assay: Germination assay, corn seeds coated with compound; conditions: for corn seed germination at day 3: seed coating
[4] = test system: Dandelion (Taraxacum officinale); assay: Weed soil drench assay, dandelion; assay type: in vivo; conditions: for Percentage mortality: Dandelions, 40 mL of 5% solution, soil drench; for chlorosis and phytotoxicity: dandelions, 40 mL of 5%, 2 days after application
Method: (§1) Dandelion seeds were obtained from native prairie fields in Ames, IA. Individual seeds were sown for each pot (6″ wide×4.5″ deep) with approximately 800 mL of soil for each plant. Only plants that germinated were used for the study. Plants were treated 1-2 weeks post emergence. Plants were watered every 2-3 days as needed.
(§2) Formulations of the various active ingredients were created using the monoterpenoid derivatives, potassium hydroxide, and Triton-X 100™ to aid in the solvation of the active ingredient. Formulations included 5% active ingredient by weight (0.5-1 g/100 ml water), with a 1:1 molar ratio of potassium hydroxide used to aid in the solvation (135-269 mg/100 mL for both thymyloxyacetic acid and carvacryloxyacetic acid). […] Observations were performed 2 days and 3 weeks after soil drench to determine the effects of the treatments on the various types and stages of plants. Phytotoxicity is reported as percentage of total plants treated compared to a control treatment that was exposed to a similar formulation (without the active monoterpenoid derivatives).

[5] = test system: Lamb's Quarters (Chenopodium album); assay: Weed soil drench assay, lamb's quarters; assay type: in vivo; conditions: for Percentage mortality: Lamb's quarters, 40 mL of 5% solution, soil drench; for chlorosis and phytotoxicity: lamb's quarters, 40 ml of 5%, two days after application
Method: as §1, with “Lamb's quarters” for “Dandelion”, “the Department of Agronomy at Iowa State University.” for “native prairie fields in Ames, IA.”
as §2

[6] = test system: soybeans; assay: Pre-emergence assay, soybean; assay type: in vivo; conditions: for pre-emergent effect on soybeans (words): 1%, 3-weeks after application; for qualitative growth assessment, pre-emergence: Soy, soil treated with 40 ml of 1% solution 1 day after planting, 3 weeks after application
Method: (§3) Soybean plants were planted under 1 cm of potting soil and watered every 2-3 days as necessary. Plants were grown in pots (6″ wide×4.5″ deep) with approximately 800 mL of soil for each plant. Plants germinated approximately 3-5 days after being planted. Plants were grown in a greenhouse under a constant temperature and light environment (25±5° C., 12 hr: 12 hr light: dark cycle).
(§4) 1-day after seeds/beans were planted, soil was drenched with 40 ml of formulation with 1% active ingredient. This was done to assess germination inhibition in the soil. […] Qualitative growth assessment was made by comparing the treated plants to the untreated controls.

[7] = test system: Wood sorrel; assay: Pre-emergence assay, wood sorrel; assay type: in vivo; conditions: for pre-emergent effect on wood sorrel (words): 1%, 3-weeks after application; for qualitative growth assessment, pre-emergence: Sorrel, soil treated with 40 ml of 1% solution 1 day after planting, 3 weeks after application
Method: as §4

[8] = test system: Corn; assay: Pre-emergence assay, corn; assay type: in vivo; conditions: for pre-emergent effect on corn (words): 1%, 3-weeks after application; for qualitative growth assessment, pre-emergence: Corn, soil treated with 40 ml of 1% solution 1 day after planting, 3 weeks after application
Method: as §3, with “Corn” for “Soybean”, “½″” for “1 cm”, “potting plants” for “pots”, “4-7” for “3-5”
as §4

[9] = test system: Velvetleaf (Abutilon theophrasti); assay: Weed soil drench assay, velvetleaf; assay type: in vivo; conditions: for Percentage mortality: Velvet Leaf, 40 mL of 5% solution, soil drench; for chlorosis and phytotoxicity: velvet leaf, 40 ml of 5%, 2 days after application
Method: Velvetleaf plants were obtained from the wild in prairie fields in Iowa. Plants were carefully transplanted into pots (6″ wide×4.5″ deep) with approximately 800 mL of soil for each plant. Plants were maintained in a greenhouse under a constant temperature and light environment (25±5° C., 12 hr: 12 hr light: dark cycle). Plants were watered every 2-3 days as needed.
as §2

[10] = test system: soybeans; assay: Germination assay, soybeans coated with compound; assay type: in vivo, soybean; conditions: beans coated in 1% weight compound/weight bean
Excerpt: Soybeans were susceptible to Aphis glycines infestation and were not determined to be a biotype that was resistant to infestation, which could confide results. Germination typically occurred between 3-5 days after moistening.

[11] = test system: Giant Foxtail (Setaria faberi); assay: Weed soil drench assay, giant foxtail; assay type: in vivo; conditions: for Percentage mortality: Giant Foxtail, 40 mL of 5% solution, soil drench; for chlorosis and phytotoxicity: giant foxtail, 40 mL of 5%, 2 days after application
Method: as §1, with “Giant foxtail” for “Dandelion”, “the Department of Agronomy at Iowa State University. Three” for “native prairie fields in Ames, IA. Individual”
as §2

[12] = test system: treated weeds from each species; assay: Weed soil drench assay, all treated weed species; assay type: in vivo; conditions: 5% soil drench; observed at two days after the initial treatment
Method: as §2

[13] = 2-days after treatment, Old Plants, 0.50%
[14] = 2-days after treatment, Old Plants, 1%
[15] = 2-days after treatment, Young Plants, 0.50%
[16] = 2-days after treatment, Young Plants, 1%
[17] = 3-weeks after treatment, Old Plants, 0.50%
[18] = 3-weeks after treatment, Old Plants, 1%
[19] = 3-weeks after treatment, Young Plants, 0.50%
[20] = 3-weeks after treatment, Young Plants, 1%
[21] = young plants, 2 days after exposure, both concentrations
[22] = listed as Carvacryloxyacetic acid

| SMILES | phytotoxicity (qualitative), soil drench [1] | effect on corn plants, soil drench ([2]; 3 weeks after exposure) | phytotoxicity (qualitative), soil drench [2, 13] | phytotoxicity (qualitative), soil drench [2, 14] | phytotoxicity (qualitative), soil drench [2, 15] | phytotoxicity (qualitative), soil drench [2, 16] | phytotoxicity (qualitative), soil drench [2, 17] | phytotoxicity (qualitative), soil drench [2, 18] | phytotoxicity (qualitative), soil drench [2, 19] | phytotoxicity (qualitative), soil drench [2, 20] | effect on corn plants, soil drench [2, 21] | corn seed germination at day 3 [3] | Percentage mortality ([4]; 2-days after treatment) [%] | Percentage mortality ([4]; 3-weeks after treatment) [%] | chlorosis and phytotoxicity [4] | Percentage mortality ([5]; 2-days after treatment) [%] | Percentage mortality ([5]; 3-weeks after treatment) [%] | chlorosis and phytotoxicity [5] | pre-emergent effect on soybeans (words) [6] | qualitative growth assessment, pre-emergence [6] | other results |
| --- | --- | --- | --- | --- | --- | --- | --- | --- | --- | --- | --- | --- | --- | --- | --- | --- | --- | --- | --- | --- | --- |
| Cc1ccc(C(C)C)cc1OCC(=O)O [carvacryloxyacetic acid, 2-(5-isopropyl-2-methylphenoxy)acetic acid] | XXX | caused phytotoxicity | - | -- | - | - | XXX | XXX | XXX | -- | did not show any significant effects | some level of germination | 100 | 100 | significant chlorosis and phytotoxicity | 100 | 100 | significant chlorosis and phytotoxicity | completely prevented from growing | XXX (plant death) | effect on corn plants, soil drench ([2]; 3 weeks, 1%): did not cause mortality; effect on corn plants, soil drench ([2]; older plants, 2-days, 0.5%): did not cause any significant effects; pre-emergent effect on soybeans (words) [6, 22]: prevented the emergence of soybean plants entirely; pre-emergent effect on wood sorrel (words) [7]: completely prevented from growing; pre-emergent effect on wood sorrel (words) [7, 22]: significantly inhibited the growth; qualitative growth assessment, pre-emergence [7]: − −; pre-emergent effect on corn (words) [8]: significant inhibition in corn growth; pre-emergent effect on corn (words) [8, 22]: significantly inhibited the growth; qualitative growth assessment, pre-emergence [8]: − −; Percentage mortality ([9]; 2-days after treatment): 100%; Percentage mortality ([9]; 3-weeks after treatment): 100%; chlorosis and phytotoxicity [9]: significant chlorosis and phytotoxicity; inhibition of soybean germination/growth (words) [10]: prevented the growth of soybeans; Percentage mortality ([11]; 2-days after treatment): 100%; Percentage mortality ([11]; 3-weeks after treatment): 100%; chlorosis and phytotoxicity [11]: significant chlorosis and phytotoxicity; treated weeds killed, each species [12]: 100% |
| Cc1ccc(C(C)C)c(OCC(=O)O)c1 [thymyloxyacetic acid, 2-(2-isopropyl-5-methylphenoxy)acetic acid] | XXX | caused phytotoxicity | -- | --- | - | - | XXX | XXX | XXX | XXX | did not show any significant effects | prevented any germination | 100 | 100 | significant chlorosis and phytotoxicity | 100 | 100 | significant chlorosis and phytotoxicity | most susceptible | − − − | effect on corn plants, soil drench ([2]; older plants, 2 days after treatment, 0.5% and 1%): significant phytotoxic effects; inhibition of corn seed germination ([3]; seed coating 1% weight compound/weight seed, 3, 5, 7 days): second most significant inhibition; pre-emergent effect on soybeans (words) ([6]; listed as Thymyloxyacetic acid): major inhibition of growth; pre-emergent effect on wood sorrel (words) [7]: significantly inhibited; pre-emergent effect on wood sorrel (words) ([7]; listed as Thymyloxyacetic acid): major inhibition of growth; qualitative growth assessment, pre-emergence [7]: −; pre-emergent effect on corn (words) [8]: significantly inhibited; also recorded: capable of inhibiting the growth; qualitative growth assessment, pre-emergence [8]: −; Percentage mortality ([9]; 2-days after treatment): 100%; Percentage mortality ([9]; 3-weeks after treatment): 100%; chlorosis and phytotoxicity [9]: significant chlorosis and phytotoxicity; inhibition of soybean germination/growth (words) [10]: prevented the growth of soybeans; Percentage mortality ([11]; 2-days after treatment): 100%; Percentage mortality ([11]; 3-weeks after treatment): 100%; chlorosis and phytotoxicity [11]: significant chlorosis and phytotoxicity; treated weeds killed, each species [12]: 100% |
